Reference: PMC9856199, “Intact Transition Epitope Mapping—Force Differences between Original and Unusual Residues (ITEM-FOUR)” (Biomolecules, 2023)
Peptide text beside a SMILES is read from it.

Key:
Type in all cases: binding
[1] = biological target: monoclonal anti-hcTn I antibody [MF4] (ab38210 from Abcam); assay: Isothermal titration calorimetry of immune complex formation in solution; details: for ∆H / ∆G: immune complex formation in solution; for ∆H: 298 K; for ∆G: calculated from KA (van´t Hoff equation); for T∆S: T = 298 K, calculated with Gibbs-Helmholtz equation
Method: The monoclonal anti-hcTn I antibody [MF4] (ab38210 from Abcam, Cambridge, United Kingdom) was stored in PBS (0.138 M NaCl; 0.0027 M KCl, pH 7.4 from Sigma-Aldrich, St. Louis, MO, US), pH 7.4, and was used as purchased. The hcTn I peptides 1, 2, 4, 6, 7, and 8 were dissolved in PBS and stock solutions with 0.32 to 0.93 mg/mL peptide concentrations were prepared.
Isothermal titration calorimetry measurements were performed with an Affinity ITC instrument (Waters|TA Instruments, New Castle, DE, USA) at T = 298 K equipped with a 190 µL sample cell and a matching reference cell, AccuShot for precise delivery of the titrant, and a Flex Spin for slow speed stirring (125 rpm), efficient mixing, and highest sensitivity. The anti-hcTn I antibody was placed in the sample cell at 1.95 µM (in PBS). The hcTn I peptides, each at 40 µM (in PBS), were automatically titrated to the antibody in 18–20 steps (2 µL per step). The time between titrations was 200 s to establish a baseline between each injection for accurate heat determination and modeling.
The integrated areas under each injection peak (heat over time) were plotted against the active species’ respective molar ratios ranging from 1:0.4 to 1:6.6. An independent binding model was chosen to fit all the data and directly determine the enthalpy (ΔH) and association constant (KA). Gibbs free energy (ΔG) is calculated from the KA using the van´t Hoff equation. The change in entropy term (ΔS) is calculated applying the Gibbs-Helmholtz equation.

[2] = biological target: monoclonal anti-hcTn I antibody [MF4] (ab38210 from Abcam); assay: ITEM-FOUR: nanoESI-MS gas-phase dissociation of antibody-peptide immune complexes; details: for KD m0g#: apparent gas-phase dissociation constant, unitless number; for KD m0g# / kD m0g#: mean charge state, extrapolated to no excess energy; for kD m0g#: apparent gas-phase dissociation rate constant; for ΔGm0g# / ΔHm0g# / TambΔSm0g#: apparent, gas-phase immune complex dissociation; for TambΔSm0g#: Tamb 298 K; for binder group by ITEM-FOUR: grouping by ΔHm0g# and binding behaviour in the gas phase; for Initial [%] (immune complex amount at the lowest applied ∆CV): normalized educt ion intensity at ∆CV 2 V; for Initial [%] (immune complex amount at the lowest applied ∆CV) / Final [%] (immune complex amount at the highest applied ∆CV): antibody:peptide 1:2.2, 200 mM ammonium acetate pH 6.7, averaged from all measurements; for Final [%] (immune complex amount at the highest applied ∆CV): normalized educt ion intensity at ∆CV 80 V; for Slope: slope of tangent along steep part of Boltzmann curve
Method: Starting materials and antibody-peptide complex-containing solutions were prepared as previously described. In brief, an aliquot of 25 µL (50 µg) of the monoclonal anti-hcTn I antibody [MF4] (ab38210 from Abcam, Cambridge, United Kingdom) was placed on a 10K centrifugal filter device (Merck Millipore, Carrigtwohill, Ireland) with 400 µL 200 mM ammonium acetate, pH 6.7. After centrifugation at 13,000 rpm for 7 min in an Eppendorf centrifuge (MiniSpin, Eppendorf, Hamburg, Germany), the flow through was discarded and the filter was filled-up with 450 µL 200 mM ammonium acetate, pH 6.7. This centrifugation/discarding/refilling step was repeated eight times. Afterwards, the filter was placed upside down in a new tube and centrifuged for 5 min at 4500 rpm. Approximately 50 µL of antibody solution were collected (solution 1). […] Synthesized hcTn I peptides (Table 1) were purchased as lyophilized powders (peptides and elephants, Hennigsdorf, Germany) and dissolved in 200 mM ammonium acetate, pH 6.7, to obtain peptide concentrations of ca. 2.0 mg/mL, each. The actual peptide concentrations of individual peptide solutions were determined using the Qubit^TM 2.0 Fluorometer assay. Afterwards, all peptide solutions were diluted 1:100 with 200 mM ammonium acetate, pH 6.7 (solution 2). To obtain immune-complex-containing mixtures, the antibody solution (solution 1) and the peptide solution (solution 2) were mixed to obtain final molar antibody-peptide ratios of 1:2.2 (solution 3). Typically, 4 µL of antibody solution were mixed with the appropriate volume (typically 1–2 µL) of the individual peptide solution. Solutions 3 were incubated at room temperature for at least 1 h.
For each ITEM-FOUR examination, 3 µL of the peptide, antibody, or immune complex-containing solution were loaded into nanoESI capillaries that were pulled and gold coated in house. NanoESI-MS measurements were performed with a Synapt G2-S mass spectrometer (Waters MS-Technologies, Manchester, United Kingdom) with the following settings for ITEM-FOUR measurements: capillary voltage, 1.8 kV; source temperature, 40 °C; source offset voltage, 110 V; sample cone voltage, 110 V; cone gas flow, 100 L/h; trap gas flow, 8.0 mL/min; transfer collision cell voltage, 2 V. Measurements were acquired in positive-ion resolution mode, applying a mass window of m/z 200–8000. This mass range was calibrated using 1 mg/mL sodium iodide dissolved in isopropanol/water (50:50, v/v). The quadrupole analyzer was used with the following settings: M1 = 4000, dwell time, and ramp time 25%; M2 = 5000, dwell time, and ramp time 25%; and M3 = 6000 to block transmission of lower molecular weight ions. The first collision cell (TRAP) was used to dissociate antibody-peptide complexes by increasing the collision cell voltage difference (∆CV) in a stepwise manner every 60 s. The collision cell voltage difference steps were: 2, 4, 6, 8, 12, 16, 20, 30, 40, 50, 60, 70, and 80 V. Measurements were repeated at least twice (up to seven times) per immune complex, generating a total of 32 measurement series. The mass spectrometry proteomics data have been deposited to the ProteomeXchange Consortium via the PRIDE [33] partner repository with the dataset identifier PXD038365.
MassLynx version 4.1 (Waters MS-Technologies) was used for data analysis as described previously. First, the scans of each ∆CV setting encompassing 60 s of recording were combined to generate an average mass spectrum for each ∆CV step. Next, the mass spectra were smoothened in 20 cycles with a window of 10 using the Savitzky-Golay algorithm. The ion intensities of all molecular species and their corresponding charge states (complex ions, complex-released peptides, and antibody fragments) were read after smoothing. A bell-shaped Gaussian curve of the intensities of each molecular species was calculated using Origin 2017 (32-bit) SR2 (OriginLab Corporation, Northampton, MA, USA). […]

anti-Histag antibody = assay: nanoESI-MS of peptide mixed with unrelated antibody (specificity control); details: binary mixture, 200 mM ammonium acetate pH 6.7
Method: Figure S15. Nano-ESI mass spectra of Troponin I peptide 7 (ENREVGDWPKNIDAL) upon incubation with anti-Histag […]
ion signal) and (b) with blocked transmission of low mass ions (< 4800 ) and collision cell voltage differences of 2V and (c) with blocked transmission of low mass ion (< 4800) and collision cell voltage differences of 80V. Charge states are given for […]
Antibody fragment ion signals are visible between m/z 1200 and 2300 in (c). Solvent: 200 mM ammonium acetate, pH 6.7.
(1 picture or pasted object on this page, not shown here)

[3] = ITC in PBS pH 7.4, 298 K, antibody 1.95 µM in cell, peptide 40 µM titrant, independent binding model, unitless number
[4] = ITC in PBS pH 7.4, 298 K, independent binding model, unitless number

Kd [1, 3] [µM] | KD m0g# [2] | kD m0g# [2] [s⁻¹] | KD [1, 3] | binding in solution (in words) ([1]; ITC, PBS pH 7.4, 298 K) | Molecule | KA [1, 4] | ∆H ([1]; ITC) | ∆G ([1]; ITC) | T∆S ([1]; ITC) | ΔGm0g# [2] [kcal/mol] | ΔHm0g# [2] [kcal/mol] | TambΔSm0g# [2] [kcal/mol] | binder group by ITEM-FOUR [2] | Initial [%] (immune complex amount at the lowest applied ∆CV) [2] | Final [%] (immune complex amount at the highest applied ∆CV) [2] | Slope [2] [%/V] | binding to anti-hcTn I antibody (in words) ([2]; ITEM analysis of peptide-antibody mixture, molar ratio 2.2:1) | complex formation with anti-Histag antibody (in words) (anti-Histag antibody)
0.411 | 4.62 × 10^−12 Ø | 2.9e+12 |  |  | CC[C@H](C)[C@H](NC(=O)[C@H](CC(N)=O)NC(=O)[C@H](CCCCN)NC(=O)[C@H](CCCNC(=N)N)NC(=O)[C@H](Cc1c[nH]c2ccccc12)NC(=O)CNC(=O)CNC(=O)[C@@H](NC(=O)[C@H](CCC(=O)O)NC(=O)[C@H](CCCNC(=N)N)NC(=O)[C@H](CC(N)=O)NC(=O)[C@@H](N)CCC(=O)O)C(C)C)C(=O)N[C@@H](CC(=O)O)C(=O)N[C@@H](C)C(=O)N[C@@H](CC(C)C)C(=O)O [Peptide 6] (H-ENREVGGWRKNIDAL-OH) | 2.43 × 10^6 Ø | -10.85 kcal/mol | -8.721 kcal/mol | -2.13 kcal/mol | 15.46 | -0.442 | -15.89 | very strong binders (Peptides 1, 2, and 6 are “very strong binders” (group I) as their ΔHm0g# values of the gas-phase dissociation reaction are above −2 kJ/mol) | 58.83 | 23.33 | −0.75 |  | 
 |  |  | n.b. | did not bind in solution | ENREVGDWPKNIDAL [Peptide 7] | n.b. | n.b. | n.b. | n.b. |  |  |  | weak and unorthodox binder | 15.37 | 5.90 |  | bound by the paratope in an unorthodox fashion | no complex formation was detected
0.243 | 4.77 × 10^−12 Ø | 7.37e+12 |  |  | CC[C@H](C)[C@H](NC(=O)[C@H](CC(N)=O)NC(=O)[C@H](CCCCN)NC(=O)[C@H](CC(C)C)NC(=O)[C@H](Cc1c[nH]c2ccccc12)NC(=O)[C@H](CC(=O)O)NC(=O)CNC(=O)[C@@H](NC(=O)[C@H](CCC(=O)O)NC(=O)[C@H](CCCNC(=N)N)NC(=O)[C@H](CC(N)=O)NC(=O)[C@@H](N)CCC(=O)O)C(C)C)C(=O)N[C@@H](CC(=O)O)C(=O)N[C@@H](C)C(=O)N[C@@H](CC(C)C)C(=O)O [Peptide 4] (H-ENREVGDWLKNIDAL-OH) | 4.12 × 10^6 Ø | -12.45 kcal/mol | -9.027 kcal/mol | -3.425 kcal/mol | 15.44 | -0.538 | -15.97 | strong binders (“strong binders” (group II) with ΔHm0g# values below −2 kJ/mol) | 41.60 | 23.12 | −0.35 |  | 
